According to ChEMBL document CHEMBL3286293, “Optimization of GPR40 Agonists for Type 2 Diabetes” (ACS Med Chem Lett, 2014):
Calls of active or inactive are those of the source. No cut-off for these calls is given here.

Key:
[1] = target: T1, Free fatty acid receptor 1 (Homo sapiens, UniProt O14842); experiment: Agonist activity at human GPR40 expressed in CHO cells by aequorin assay; type: cell-based
[2] = target: T1, Free fatty acid receptor 1; experiment: Agonist activity at human GPR40 expressed in mouse A9 cells by inositol phosphate accumulation assay; type: functional, cell-based
[3] = Mean residence time in rat; type: ADME, organism-based; conditions: in vivo
[4] = Volume of distribution at steady state in rat; type: ADME, organism-based; conditions: in vivo, read-out: Vdss
[5] = Oral bioavailability in rat at 2 mg/kg; type: ADME, organism-based; conditions: in vivo
[6] = Half life in rat; type: ADME, organism-based; conditions: in vivo
[7] = Half life in dog; type: ADME, organism-based, Canis lupus familiaris; conditions: in vivo
[8] = Volume of distribution at steady state in dog; type: ADME, organism-based, Canis lupus familiaris; conditions: in vivo, read-out: Vdss
[9] = Oral bioavailability in dog at 2 mg/kg; type: ADME, organism-based, Canis lupus familiaris; conditions: in vivo
[10] = Half life in cynomolgus monkey; type: ADME, organism-based, Macaca fascicularis; conditions: in vivo
[11] = Volume of distribution at steady state in cynomolgus monkey; type: ADME, organism-based, Macaca fascicularis; conditions: in vivo, read-out: Vdss
[12] = Oral bioavailability in cynomolgus monkey at 2 mg/kg; type: ADME, organism-based, Macaca fascicularis; conditions: in vivo
[13] = Ratio of drug level in brain to plasma in rat at 5 mg/kg, po after 3 hrs; type: ADME, organism-based; parameters: dose 5 mg/kg, route oral; conditions: brain and plasma, read-out: BPR
[14] = target: Voltage-gated inwardly rectifying potassium channel KCNH2 (Homo sapiens, UniProt Q12809); experiment: Inhibition of human ERG
Sequence of Voltage-gated inwardly rectifying potassium channel KCNH2 (Q12809 whole entry): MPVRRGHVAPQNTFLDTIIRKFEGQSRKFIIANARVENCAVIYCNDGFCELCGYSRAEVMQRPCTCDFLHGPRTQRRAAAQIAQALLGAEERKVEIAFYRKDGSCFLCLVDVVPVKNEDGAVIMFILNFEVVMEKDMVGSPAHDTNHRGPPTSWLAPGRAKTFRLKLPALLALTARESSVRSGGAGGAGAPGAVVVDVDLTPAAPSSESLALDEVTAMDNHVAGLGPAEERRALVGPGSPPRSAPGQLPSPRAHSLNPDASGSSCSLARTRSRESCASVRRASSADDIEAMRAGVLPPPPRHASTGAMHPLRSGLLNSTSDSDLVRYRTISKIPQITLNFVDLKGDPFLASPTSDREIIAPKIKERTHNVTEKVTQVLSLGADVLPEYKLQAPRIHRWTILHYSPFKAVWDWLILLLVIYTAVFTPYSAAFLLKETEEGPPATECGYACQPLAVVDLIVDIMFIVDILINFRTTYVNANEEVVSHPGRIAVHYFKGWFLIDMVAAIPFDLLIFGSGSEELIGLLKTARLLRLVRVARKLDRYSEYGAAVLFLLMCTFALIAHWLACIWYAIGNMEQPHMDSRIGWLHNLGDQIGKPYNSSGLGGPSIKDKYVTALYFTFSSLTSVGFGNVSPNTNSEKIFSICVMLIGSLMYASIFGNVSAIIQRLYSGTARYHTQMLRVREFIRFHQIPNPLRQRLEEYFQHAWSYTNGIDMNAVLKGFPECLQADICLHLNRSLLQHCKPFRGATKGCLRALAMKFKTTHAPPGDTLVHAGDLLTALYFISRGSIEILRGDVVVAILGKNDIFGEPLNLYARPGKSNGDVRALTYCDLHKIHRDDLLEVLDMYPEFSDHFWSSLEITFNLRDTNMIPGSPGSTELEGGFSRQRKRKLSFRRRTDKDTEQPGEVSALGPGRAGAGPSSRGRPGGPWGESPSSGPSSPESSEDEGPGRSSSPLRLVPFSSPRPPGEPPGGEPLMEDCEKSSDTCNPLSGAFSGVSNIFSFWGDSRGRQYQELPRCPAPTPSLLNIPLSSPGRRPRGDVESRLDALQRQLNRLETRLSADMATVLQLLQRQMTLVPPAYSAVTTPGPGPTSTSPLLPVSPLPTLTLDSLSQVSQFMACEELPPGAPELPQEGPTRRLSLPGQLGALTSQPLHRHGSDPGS

[15] = Inhibition of CYP450 (unknown origin); type: ADME; conditions: human
[16] = Induction of CYP450 (unknown origin); type: ADME; conditions: human
[17] = system: Mus musculus; experiment: Antidiabetic activity in human GPR40 knock-in mouse assessed as reduction in blood glucose level at 10 mg/kg, po administered via gavage 1 hr before glucose challenge by oral glucose tolerance test; type: functional, organism-based; parameters: dose 10 mg/kg
[18] = system: Mus musculus; experiment: Antidiabetic activity in human GPR40 knock-in mouse assessed as reduction in glucose AUC at 10 mg/kg, po administered via gavage 1 hr before glucose challenge by oral glucose tolerance test; type: functional
[19] = system: Islets of langerhans; experiment: Induction of insulin secretion in human GPR40 knock-in mouse pancreatic islets
[20] = Plasma concentration in mouse at 1 mg/kg, po measured for 4 hrs; type: ADME, organism-based; parameters: dose 1 mg/kg, route oral
[21] = system: Plasma; experiment: […] in mouse plasma at 1 mg/kg, po; type: ADME, organism-based; parameters: dose 1 mg/kg, route oral; conditions: in vivo
[22] = Clearance in rat at 0.5 mg/kg, iv; type: ADME, organism-based; parameters: dose 0.5 mg/kg, route intravenous; conditions: in vivo

T1 sequence (O14842 whole entry): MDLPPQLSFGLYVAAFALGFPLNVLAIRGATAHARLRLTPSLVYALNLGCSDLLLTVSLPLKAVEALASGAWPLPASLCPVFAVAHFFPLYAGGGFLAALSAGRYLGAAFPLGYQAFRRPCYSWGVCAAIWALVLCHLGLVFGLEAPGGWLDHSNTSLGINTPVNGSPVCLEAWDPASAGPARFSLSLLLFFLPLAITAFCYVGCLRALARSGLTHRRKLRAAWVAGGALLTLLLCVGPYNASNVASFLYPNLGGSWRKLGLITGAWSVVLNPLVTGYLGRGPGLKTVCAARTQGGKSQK

Structure (SMILES)	EC50 [1] [nM]	EC50 [2] [nM]	MRT [3] [h]	Vd [4] [L/kg]	bioavailability [5] [%]	further results
Cc1nc(-c2ccc(C(F)(F)F)cc2)sc1COc1ccc([C@H](CC(=O)O)c2nccn2C)cc1	73	16	3.7	0.64		
Cc1nc(-c2ccc(C(F)(F)F)cc2)sc1COc1ccc([C@H](CC(=O)O)c2cnco2)cc1	57	9				
Cc1cc(Cl)ccc1-c1cccc(COc2ccc([C@H](CC(=O)O)c3nnnn3C)cc2)c1	12	1.3	5.2	14.3	53	
Cc1nc(-c2ccc(C(F)(F)F)cc2)sc1COc1ccc([C@H](CC(=O)O)c2ncnn2C)cc1	65		3.6	1.5		
Cc1cc(Cl)ccc1-c1cccc(COc2ccc([C@H](CC(=O)O)c3ncnn3C)cc2)c1	33	11	2.5	3.5	18	
Cc1nc(-c2ccc(C(F)(F)F)cc2)sc1COc1ccc([C@H](CC(=O)O)c2ccon2)cc1	36	3.6		0.68	77	half-life [6]: 5.3 h; half-life [7]: 5.6 h; Vd [8]: 0.6 L/kg; bioavailability [9]: 100%; half-life [10]: 14 h; Vd [11]: 0.35 L/kg; bioavailability [12]: 65%; Kp at 3 h [13]: 0.02; inhibition (INH) [14]: Not Active; inhibition (INH) [15]: Not Active; Activity [16]: Not Active; inhibition [17]: Active; inhibition in vivo at 10 mg/kg [18]: 19%; EC50 [19]: 55 nM; concentration at 4 h [20]: 2000 nM; Cp(f) [21]: 8 nM
Cc1cc(Cl)ccc1-c1cccc(COc2ccc([C@H](CC(=O)O)c3nccn3C)cc2)c1	33	7.6	2.4	0.73	48	clearance [22]: 5.17 mL/min/kg
CC#C[C@@H](CC(=O)O)c1ccc(OCc2cccc(-c3ccc(C(F)(F)F)cc3)c2)cc1			10	0.58	84	
Cc1nc(-c2ccc(C(F)(F)F)cc2)sc1COc1ccc([C@H](CC(=O)O)c2ncco2)cc1	69					
CC#C[C@@H](CC(=O)O)c1ccc(OCc2cccc(-c3ccc(Cl)cc3C)c2)cc1	36					
Cc1nc(-c2ccc(C(F)(F)F)cc2)sc1COc1ccc([C@H](CC(=O)O)c2nnnn2C)cc1	41	3.8	0.74	3.2	6.7	
